SMILES strings stand for the structures.

One may read the logP as the decadic logarithm of the partition coefficient of the neutral form, usually between octanol and water. The compound `CC(C)(C)C1(C)C(=O)NC(=O)NC1=O` came in with a logP of 0.8.
The value for `CCC(C)C1(CC)C(=O)NC(=O)NC1=O` (stereo not drawn) was 1.65; that for `CC(C)(C)C1C(=O)NC(=O)NC1=O` was 0.28.
The compound `C=CCC1(C(C)(C)C)C(=O)NC(=O)NC1=O` registered a logP of 1.64.
In the case of `CC(C)(C)C1(Cl)C(=O)NC(=O)NC1=O` it was 0.82; in that of `CCCC1(CCC)C(=O)NC(=O)NC1=O`, 1.75; in that of `CCCC1(CCC)C(=O)NC(=S)NC1=O`, 2.66.
In turn, `CC(C)C1C(=O)NC(=O)NC1=O` registered a logP of -0.02.
As to `CCCCC1(CCCC)C(=O)NC(=O)NC1=O`, the logP was 2.7.
Consider `CC(C)C1(C(C)C)C(=O)NC(=O)NC1=O`, for which the logP was 1.56.
The compound `CCC1(CC)C(=O)NC(=S)NC1=O` displayed a logP of 1.5.
The compound `CCC1(C(C)(C)C)C(=O)NC(=O)NC1=O` gave a logP of 1.38.
In turn, `CC(C)C1(C)C(=O)NC(=O)NC1=O` showed a logP of 0.54.
